Test results reported in the NIST ThermoML archive (doi:10.1016/j.jct.2014.06.030).

Assay: xn = mol fraction of the nth substance listed
Conditions: 100 kPa, Liquid; for speed of sound: Sing-around technique in a fixed-path interferometer; for mass density: Vibrating tube method

C1CCOCC1 [tetrahydropyran] + C1CCCCC1
Conditions	mass density, 298.15 K [kg/m3]	mass density, 303.15 K [kg/m3]	mass density, 308.15 K [kg/m3]	speed of sound, 298.15 K [m/s]	speed of sound, 303.15 K [m/s]	speed of sound, 308.15 K [m/s]
x1 = 0.0987	782.47	777.69	772.88	1251.6	1226.7	1202.3
x1 = 0.1432	786.46	781.65	776.83	1250.7	1225.6	1201
x1 = 0.1876	790.51	785.69	780.84	1249.8	1224.6	1199.8
x1 = 0.2378	795.2	790.36	785.49	1249	1223.6	1198.7
x1 = 0.2791	799.14	794.28	789.39	1248.5	1223	1197.8
x1 = 0.3165	802.76	797.88	792.98	1248.1	1222.6	1197.3
x1 = 0.3782	808.86	803.96	799.03	1247.9	1222.4	1197
x1 = 0.4237	813.45	808.53	803.59	1248	1222.5	1197.1
x1 = 0.4521	816.36	811.43	806.48	1248.3	1222.7	1197.4
x1 = 0.4982	821.15	816.2	811.24	1248.8	1223.3	1198.1
x1 = 0.5318	824.7	819.74	814.76	1249.5	1224	1198.9
x1 = 0.5643	828.18	823.2	818.21	1250.2	1224.9	1199.9
x1 = 0.5918	831.15	826.17	821.16	1251	1225.7	1200.8
x1 = 0.6236	834.62	829.63	824.61	1252	1226.8	1202.1
x1 = 0.6982	842.94	837.92	832.88	1254.8	1230	1205.6
x1 = 0.7341	847.03	841.99	836.93	1256.4	1231.7	1207.7
x1 = 0.7949	854.07	849.02	843.94	1259.3	1235	1211.4
x1 = 0.8632	862.2	857.11	852	1262.9	1238.9	1215.8

Cc1ccccc1Cl [2-chlorotoluene] + C1CCCCC1
Conditions	mass density, 298.15 K [kg/m3]	mass density, 303.15 K [kg/m3]	mass density, 308.15 K [kg/m3]	speed of sound, 298.15 K [m/s]	speed of sound, 303.15 K [m/s]	speed of sound, 308.15 K [m/s]
x1 = 0.1098	808.15	803.38	798.58	1251.3	1227.6	1204.7
x1 = 0.1437	818.67	813.9	809.09	1251	1227.7	1205
x1 = 0.1987	835.72	830.93	826.11	1251.1	1228.2	1205.9
x1 = 0.2356	847.14	842.33	837.5	1251.5	1228.8	1206.7
x1 = 0.2874	863.12	858.3	853.47	1252.4	1230	1208.1
x1 = 0.3256	874.88	870.06	865.22	1253.4	1231.2	1209.5
x1 = 0.3876	893.92	889.08	884.22	1255.3	1233.6	1212.2
x1 = 0.4135	901.85	897.01	892.15	1256.2	1234.8	1213.4
x1 = 0.4834	923.2	918.34	913.47	1259.3	1238.4	1217.4
x1 = 0.5243	935.64	930.78	925.9	1261.4	1240.7	1220
x1 = 0.5763	951.42	946.54	941.65	1264.3	1244	1223.6
x1 = 0.6143	962.9	958.02	953.13	1266.5	1246.6	1226.5
x1 = 0.6654	978.29	973.4	968.5	1269.9	1250.3	1230.7
x1 = 0.7154	993.29	988.4	983.48	1273.4	1254.3	1235
x1 = 0.7654	1008.2	1003.3	998.42	1277.2	1258.4	1239.6
x1 = 0.8165	1023.4	1018.5	1013.6	1281.3	1262.9	1244.4
x1 = 0.8324	1028.1	1023.2	1018.3	1282.6	1264.3	1246
x1 = 0.8965	1047.1	1042.2	1037.3	1288.4	1270.3	1252.3
